Source: patent publication US12150927B2, “Use of cannabidiolic acid in the treatment of autism spectrum disorder and associated disorders” (GW Research Limited, priority 2016, dated 2024)

Key:
MeCP2 KO mice = assay: Body weight gain, mouse model of Rett syndrome; type: in vivo; conditions: CBDA 2 and 20 mg/kg i.p. daily, PND 28-66, FIG. 5
Method: CBDA was administered daily at the dose of 2 or 20 mg/kg i.p. starting from PND 28 and the following signs were scored every other day: hindlimb clasping (indication of motor imbalance), tremor, gait (measure of coordination), breathing, mobility and general condition.
The CBDA was dissolved in ethanol, cremophor and saline (1:1:18). Starting from PND 28, mice received a daily intraperitoneal injection of CBDA (or vehicle) at the dose of 2 or 20 mg/kg. Animals were then scored every other day to evaluate the effect of CBDA treatment on motor symptoms (hindlimb clasping, gait, mobility) as well as neurological signs and general conditions (breathing abnormalities, tremors and general condition) present in MeCP2 knockout (KO) mice.

[1] = tested on: offspring of VPA-exposed rats; assay: Sociability and preference for social novelty, 3-chamber apparatus, rat VPA model; type: in vivo, Sprague-Dawley rats
Method: Pregnant Sprague-Dawley rats (Charles River, Calco, Italy), received a single intraperitoneal injection of 500 mg/kg sodium valproate on the 12.5 day after conception, and control females were injected with physiological saline at the same time. Sodium valproate (Sigma Aldrich, Milan, IT) was dissolved in saline at a concentration of 250 mg/ml.
CBDA was dissolved in ethanol, cremophor and saline (1:1:18). Symptomatic treatment with CBDA at doses of 2 and 20 mg/kg/day i.p. was performed starting from PND 34 (early adolescence) till 56 (early adulthood), both in male and female offspring of dams injected with VPA 500 mg/kg (or vehicle) on day 12.5 after conception. At PND 56, a series of behavioural tests was performed in order to assess the effect of chronic CBDA on sociability, social novelty, short-term memory, locomotion and stereotyped/repetitive behaviours.
Sociability and preference for social novelty: These behaviours were investigated in a 3-chamber apparatus which allows for the measurement of social approach and social preference. In brief, animals were placed into a novel arena (80 cm×31.5 cm) composed of three communicating chambers separated by Perspex walls with central openings allowing access to all chambers for 5 min.
Following this acclimatisation period, animals were briefly confined to the central chamber while an unfamiliar rat confined in a small wire cage was placed in one of the outer chambers. An identical empty wire cage was placed in the other chamber. […] Time spent engaging in investigatory behaviour with the rat was evaluated with the aid of Anymaze program (Ugo Basile, Italy) in order to examine social approach.
To investigate the preference for social novelty, a novel unfamiliar rat was then placed in the empty cage and the test animal was then allowed to explore the arena/chambers for a further 5 min. Time spent engaging in investigatory behaviour with the novel unfamiliar rat was evaluated with the aid of Anymaze program (Ugo Basile, Italy) in order to examine preference for social novelty.

Ube3am-/p+ (AS) mice [2] = assay: Clasping test, mouse model of Angelman syndrome; type: in vivo; conditions: chronic treatment (30 days) CBDA 20 mg/kg i.p., 10 weeks of age, vs AS vehicle, FIG. 12
Method: (§1) Heterozygous mice with maternal deficiency of Ube3A (Ube3am−/p+) and wild type (Ube3am+/p+) were purchased from The Jackson Laboratory (Jackson code: B6.129S7-Ube3a tm1Alb/J) and maintained in a C57BL/6 background.
(§2) Drugs were dissolved in 1:1:18 ethanol:cremophor:0.9% saline, for intraperitoneal (i.p.) administration. […] CBDA was administered at 20 mg/kg.
Clasping: The clasping test assesses ataxia in mice. Mice were suspended by the base of the tail and their behaviours were recorded for 30 seconds. The time for which the mice clasped their hind limbs was recorded. The time was then scored as follows: 4, 15-30 s, 3, 10-15 s, 2, 5-10 s, 1, 0-5 s and 0, 0 s

Ube3am-/p+ (AS) mice [3] = assay: Rotarod test, mouse model of Angelman syndrome; type: in vivo; conditions: chronic treatment (30 days) CBDA 20 mg/kg i.p., 10 weeks, vs AS vehicle, FIG. 13
Method: as §1, §2
Rotarod: The rotarod test assesses balance and motor coordination of mice. Mice have been measured for the time (in seconds) of equilibrium before falling on a rotary cylinder by a magnet that, activated from the fall of the mouse on the plate, allows to record the time of permanence on the cylinder. […] The animals were analysed by 2 separate tests at 1-h interval in the same day.

Ube3am-/p+ (AS) mice [4] = assay: Tail suspension test, mouse model of Angelman syndrome; type: in vivo; conditions: CBDA 20 mg/kg i.p., vs AS vehicle, FIG. 15
Method: as §1
Drugs were dissolved in 1:1:18 ethanol:cremophor:0.9% saline, for intraperitoneal (i.p.) administration. Drug treatment was performed daily for 35 days. CBDA was administered at 20 mg/kg.
Tail suspension: The tail suspension test assesses depressive-like behaviour in mice. Mice were individually suspended by the tail on a horizontal bar (50 cm from floor) using adhesive tape placed approximately 4 cm from the tip of the tail. The duration of immobility was recorded in seconds over a period of 6 minutes by a time recorder. Immobility time was defined as the absence of escape-oriented behaviour.

[5] = tested on: Fmr1 KO and WT mice (PND21); assay: Susceptibility to audiogenic seizures; type: in vivo
Method: This trait was evaluated in PND21 mice after acute administration of the compounds or its vehicle, 30 min before starting the procedure. To measure audiogenic seizure sensitivity mice were placed individually into a novel environment, a glass cylinder (40 cm high, 16 cm diameter) and allowed to explore for 1 min. Next, a bell (100 dB) was rung for 30 see and seizure activity scored according to the following scale: no response, 0; wild running, 1; clonic seizure, 2; tonic seizure, 3; status epilepticus/respiratory arrest/death, 4.
On postnatal day 21 (PND21) WT and Fmr1 KO mice were injected with CBDA (20 mg/kg) or vehicle, 30 min before exposure to a bell ring (100 dB). Mice exposed to this noise for 30 see ceased from their normal exploratory behaviour and reacted with gradually to wild-running, clonic seizure, tonic seizure or death. The maximum response was annotated for each mouse as detailed in Table 2 below. A score was calculated according to the severity of the symptoms as explained in the Methods section.

animal models of seizure = conditions: co-pending UK patent application GB1514079.1; cited from earlier work
[6] = FXS (Fmr1 KO) mice PND21, n = 5, CBDA 20 mg/kg acute (30 min)
[7] = WT mice PND21, n = 6, CBDA 20 mg/kg acute (30 min)

Compound: C=C(C)[C@@H]1CCC(C)=C[C@H]1c1c(O)cc(CCCCC)c(C(=O)O)c1O [CBDA, Cannabidiolic acid]
- body weight gain (MeCP2 KO mice): did not prevent the reduction in body weight
- preference index ([1]; CBDA 20 mg/kg/day i.p. PND 34-56, VPA rats, FIG. 1C): significantly counteracted the impairment in sociability
- social novelty preference ([1]; CBDA 20 mg/kg/day i.p. PND 34-56, male VPA rats, FIG. 1A): statistically significant effect in males on restoration of social novelty preference
- sociability ([1]; CBDA at both doses (2 and 20 mg/kg/day i.p.) PND 34-56, VPA rats, FIG. 1B): significantly reduced the impairment in sociability
- clasping duration (Ube3am-/p+ (AS) mice [2]): significantly reduced clasping duration
- latency to fall (rotarod) (Ube3am-/p+ (AS) mice [3]): significantly reduced latency to fall
- duration of immobility time (Ube3am-/p+ (AS) mice [4]): significantly reduced the duration of immobility time
- number of mice with maximum response: Clonic seizure [5, 6]: 0
- number of mice with maximum response: Death [5, 6]: 0
- number of mice with maximum response: No response [5, 6]: 2
- number of mice with maximum response: Tonic seizure [5, 6]: 1
- number of mice with maximum response: Wild running [5, 6]: 2
- seizure severity ([5]; FXS mice, CBDA 20 mg/kg, 30 min before 100 dB bell, vs vehicle): either no seizures or seizures of lower severity
- number of mice with maximum response: Clonic seizure [5, 7]: 0
- number of mice with maximum response: Death [5, 7]: 0
- number of mice with maximum response: No response [5, 7]: 6
- number of mice with maximum response: Tonic seizure [5, 7]: 0
- number of mice with maximum response: Wild running [5, 7]: 0
- efficacy in animal models of seizure (animal models of seizure): effective in animal models of seizure
